In patent publication US10214491B2, “Activators and therapeutic applications thereof” (THE JOHNS HOPKINS UNIVERSITY, priority 2007, dated 2019):

Columns and labels:
[1] = system: p53DsRed reporter in PG3/9 melanoma cells (A375 clone); experiment: p53DsRed reporter activation assay (in vitro p53 activity assay); type: cell-based; conditions: for EC50: Homo sapiens, A-375, PG3/9 melanoma cells, 24 hours, read-out: effective concentration (EC50), p53DsRed reporter activation
Protocol: The ability of the compounds to activate p53 was analyzed using a cell-based assay. To establish the assay, a stable cell transfectant expressing a p53-responsive reporter was generated. A375 melanoma cell line (ATCC CRL-1619) was transfected with a vector containing the p53 consensus element 13x repeat (13XRE) (Kern et al., 1991) cloned to a DsRed Express reporter vector (Clontech) to yield the vector “PG13DsRed”, hereafter termed as “p53DsRed”. […] The cell clone PG3/9 was used in the screen.
The assay was carried out in a 96-well format and all plate handlings were done using liquid handling robots (Thermo CRS, Thermo Electron Corporation; Biomek FX, Beckman Coulter and Hamilton STAR, Hamilton Microlab). Cells were plated at 10,000 cells/100 μL/well onto 96-well ViewPlates (Packard) and incubated overnight at +37° C. and 5% CO2. Small molecule compound chemical libraries were purchased and diluted to dimethylsulfoxide (DMSO) at 10 mM concentration. The compounds were pin-transferred to plain media at approximately 3 μM concentration either as single (one compound/one well) or pools of compounds (two compounds/one well). The growth media was removed and replaced with media with the test compounds followed by incubation of the cells for 24 h at +37° C. and 5% CO2. […] Following the incubation, the cells were washed with phosphate buffered saline and fixed with paraformaldehyde (PFA, 4%, 25 min, RT) and cell nuclei were stained with Hoechst 33342 (Molecular Probes, 4 μg/mL, 2 min, RT).
The fluorescence signals of Hoechst 33342 and DsRed reporter expression in the fixed cells were analyzed using ArrayScan 4.5 high-content screening platform (Cellomics) including an inverted microscope (Zeiss 200M) with 10× objective (Zeiss), Omega XF93 filter (Omega), ORCA-AG CCD camera (Hamamatsu). The algorithm used for image acquisition and analysis was Target Activation Bioapplication (Cellomics), which was set to analyse the total number of cells and the percentage of p53 reporter positive cells termed as “responders”. For each well, four images on both fluorescence channels were acquired corresponding to approximately 1700 cells in mock-treated wells. The mean number of responders was calculated for each well, and compounds causing reporter activation for more than two times the mean number of responders in the mock treated cells in each plate were regarded as hits.
In the secondary screen the hits were collected and tested over 100 nM to 10 μM concentration range. The compound treatment time, cell fixations and stainings as well as fluorescence signal detection was as described above. Compounds providing consistent p53DsRed reporter activation at low μM concentration range were selected for further testing. The effective concentration 50 (EC50) was calculated using the following formula: […]

In vivo toxicity tests = conditions: mice; for toxicity by weight curves, macroscopical pathologies, hematoxylin-eosin staining of tissues: 9 doses/3 weeks
Protocol: Acute and chronic toxicity of the compounds was tested on FVB/N mice. Female mice of 4-6 weeks old were purchased from Harlan and 2 animals were used per compound dose. The mice were injected intraperitoneally with the compounds three times a week for three weeks in 30 microL DMSO. Two animals received vehicle only (=30 μL DMSO). The animals were weighed prior to injections and were monitored for any signs of toxicity, distress or unusual behaviour. The animals were sacrificed three days after receiving the final injection. The liver, kidney, spleen, small intestine and thymus were excised and fixed in 4% paraformaldehyde overnight, and processed into paraffin-blocks. Haematoxylin-eosin staining (HE staining) of the tissues was performed using standard immunohistological techniques.

Structure (SMILES) | EC50 [1] | acute or chronic toxicities based on histological HE-stainings (In vivo toxicity tests; i.p., 0.5, 1, 2 mg/kg three times a week for three weeks) | toxicity by weight curves, macroscopical pathologies, hematoxylin-eosin staining of tissues (In vivo toxicity tests; i.p., 0.5, 1, 2 mg/kg) | fraction of p53-reporter activated cells at high concentrations ([1]; high concentrations, apparently due to excessive cell death) | acute or chronic toxicities based on histological HE-stainings (In vivo toxicity tests; i.p., 5, 10 and 20 mg/kg three times a week for three weeks) | toxicity by weight curves, macroscopical pathologies, hematoxylin-eosin staining of tissues (In vivo toxicity tests; i.p., 5, 10 and 20 mg/kg)
CN(C)CCNC(=O)c1cccn2c(=O)c3cc4ccccc4cc3nc12 [Compound 21] | 0.3 µM | No acute or chronic toxicities were observed | did not show any apparent toxicity | – | – | –
Cc1cc(C)c2nc3nc(C)cc(C)c3c(N)c2c1 [Compound 22, 2,4,7,9-tetramethylbenzo[b]-1,8-naphthyridin-5-amine] | 2.6 µM | – | – | decrease in the fraction of p53-reporter activated cells | No acute or chronic toxicities were observed | did not show any apparent toxicity
